In test [1] the test system is Human immunodeficiency virus 1. The test is described as follows: Antiviral activity against HIV-1 infected in FlpIn-HEK293 cells assessed as activation of long terminal repeat driven gene expression incubated for 72 hrs by luciferase based cellular assay. It counts as functional, organism-based. To be noted: Human immunodeficiency virus 1, HEK293, 72 h.
The subject of another test is Cytomegalovirus. Kind of test: Antiviral activity against CMV infected in FlpIn-HEK293 cells assessed as click beetle green reporter driven gene expression incubated for 72 hrs by luciferase based cellular assay. To be noted: HEK293, 72 h. It counts as functional, organism-based.

For the molecule `Cc1ccc(N2CCN(c3nc4cc(Br)cnc4[nH]3)CC2)cc1Cl`, the figures for the EC50 (in test [1]; in the test with Cytomegalovirus) were 0.32 µM and > 0.3 µM, respectively. For `Cc1cnc(NC(=O)N2CCN(c3cc(C(F)(F)F)c(Cl)cn3)CC2)s1`, in that order: 0.73 µM and > 40 µM.

Turning to `Cc1ccc(N2CCC(C(=O)Nc3ncc(Cl)s3)CC2)cc1Cl`, the EC50 was 2 µM in test [1] and > 40 µM with Cytomegalovirus.

For the molecule `Cc1ccc(N2CCN(C(=O)Nc3ncc(C(F)(F)F)s3)CC2)cc1Cl`, the figures for the EC50 (in test [1]; with Cytomegalovirus) were 1.3 µM and > 2 µM, respectively. With `Cc1cnc(NC(=O)N2CCN(c3cnc(C#N)c(C)c3)CC2)s1`, the 50% effective concentration (EC50) turned out to be 10 µM in test [1] and 21 µM in the test on Cytomegalovirus. For `Cc1cnc2sc(CCCOc3ccc(C)c(Cl)c3)nc2c1`, in that order: > 40 µM and > 40 µM. For the molecule `Cc1cc(N2CCN(C(=O)Nc3ncc(C#N)s3)CC2)ccc1Cl`, the 50% effective concentration (EC50) in test [1] amounted to 0.71 µM; in the test on Cytomegalovirus, 2.3 µM. For `Cc1ccc(N(C)C2CN(C(=O)Nc3ncc(Cl)s3)C2)cc1Cl` the same measures were 0.93 µM and 2.8 µM. For `Cc1ccc(OCCCc2nc3ncc(Cl)cc3s2)cc1Cl`, in that order: > 40 µM and > 40 µM.

For `Cc1cc(N2CCN(C(=O)Nc3ncc(Cl)s3)CC2)ncc1C#N`, the concentration giving a half-maximal response (EC50) in test [1] was found to be 0.46 µM; in the test with Cytomegalovirus, 1 µM. For `O=C(Nc1ncc(Cl)s1)N1CCN(c2cc(C(F)(F)F)c(Cl)cn2)CC1` the same measures were 0.92 µM and 1.8 µM. For `Cc1cnc2[nH]c(CCCOc3ccc(Cl)c(Cl)c3)nc2c1` the same measures were 14 µM and 28 µM. For `Clc1cnc2[nH]c(N3CCN(c4ccc(Cl)c(Cl)c4)CC3)nc2c1`, in that order: 0.98 µM and 2.6 µM. For `Cc1cnc(NC(=O)N2CCC(N(C)c3ccc(Cl)c(C)c3)C2)s1` (configuration not stated), the 50% effective concentration (EC50) in test [1] is > 40 µM; with Cytomegalovirus, 33 µM. Take `Cc1ccc(N2CCN(C(=O)Nc3ncc(Cl)s3)CC2C)cc1Cl` (configuration not stated): the figures for the EC50 (in test [1]; with Cytomegalovirus) were 0.82 µM and 3.7 µM, respectively. Consider `Cc1cnc2[nH]c(CCCOc3cnc(Cl)c(Cl)c3)nc2c1`, for which the figures for the concentration giving a half-maximal response (EC50) (in test [1]; in the test on Cytomegalovirus) were 21 µM and 34 µM, respectively. As for `Cc1cnc(NC(=O)N2CCC(Nc3ccc(Cl)c(C)c3)C2)s1` (configuration not stated), the EC50 in test [1] came out at 6.2 µM; with Cytomegalovirus, 14 µM. For `Cc1cnc(NC(=O)N2CCN(c3ccc(C)c(Cl)c3)C(C)C2)s1` (configuration not stated), in that order: 8.9 µM and 6.5 µM. For `Cc1cnc2[nH]c(N3CCN(c4cnc(Cl)c(Cl)c4)CC3)nc2c1`, in that order: 1.3 µM and 0.13 µM.

In the case of `Cc1cnc(NC(=O)N2CCN(c3ccc(C)c(Cl)c3)CC2C)s1` (configuration not stated), the half-maximal effective concentration (EC50) in test [1] was determined as 5 µM; in the test with Cytomegalovirus, 5.2 µM.

As to `N#Cc1cnc(NC(=O)N2CCN(c3ccc(Cl)cc3)CC2)s1`, the EC50 in test [1] was 1.5 µM; with Cytomegalovirus, 3.6 µM.

With `Cc1cc(N(C)C2CCN(C(=O)Nc3ncc(Cl)s3)C2)ccc1Cl` (configuration not stated), the EC50 is 11 µM in test [1] and 20 µM with Cytomegalovirus.

On to `Cc1ccc(N2CCCN(C(=O)Nc3ncc(Cl)s3)CC2)cc1Cl`, for which the EC50 was found to be 22 µM in test [1] and 19 µM in the test on Cytomegalovirus. For `Cc1cc(OC2CCN(C(=O)Nc3ncc(Cl)s3)C2)ccc1Cl` (configuration not stated), the results for the EC50 (in test [1]; with Cytomegalovirus) were 1.5 µM and 2.5 µM, respectively. For `Cc1cc(NC2CCN(C(=O)Nc3ncc(Cl)s3)CC2)ccc1Cl`, in that order: > 40 µM and > 40 µM.

For `Cc1cnc(NC(=O)N2CCC(Nc3ccc(Cl)c(C)c3)CC2)s1`, the concentration for a half-maximal effect (EC50) in test [1] was > 40 µM; in the test on Cytomegalovirus, 20 µM. For `Cc1cnc(NC(=O)N2CCN(c3cc(C)c(C#N)cn3)CC2)s1` the same measures were 4.2 µM and > 40 µM. With `Cc1cc(N[C@H]2CCCN(C(=O)Nc3ncc(Cl)s3)C2)ccc1Cl`, in test [1], the EC50 is > 40 µM.

As for `Cc1cnc(NC(=O)N2CCC[C@H](Nc3ccc(Cl)c(C)c3)C2)s1`, the concentration for a half-maximal effect (EC50) in test [1] was > 40 µM. On the same count and under the same terms, with `Cc1cc(OC2CCCN(C(=O)Nc3ncc(Cl)s3)C2)ccc1Cl` (configuration not stated) the figure was > 40 µM.
